Assay results reported in PubChem BioAssay (NCI).
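Growth conditions: 96-well plates. Treatment: test compound, 48 hours, 5 concentrations. Analysis: linear interpolation between bracketing concentrations; unreached endpoints set to highest concentration. GI50 = concentration required for 50% inhibition of growth. TGI: total growth inhibition.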

Columns and labels:
Assay in all cases: inhibition of tumour cell growth, NCI panel, 48 h
SK-OV-3 ovarian = test system: SK-OV-3 ovarian
HCC-2998 colon = test system: HCC-2998 colon
SF-268 CNS = test system: SF-268 CNS
UACC-62 melanoma = test system: UACC-62 melanoma
NCI-H23 lung = test system: NCI-H23 lung
EKVX NSCLC = test system: EKVX NSCLC
MDA-MB-435 = test system: MDA-MB-435
NCI-H522 lung = test system: NCI-H522 lung
NCI-H226 lung = test system: NCI-H226 lung
MDA-MB-231 breast = test system: MDA-MB-231 breast

Row | Compound | GI50 (SK-OV-3 ovarian) [µM] | TGI (SK-OV-3 ovarian) [µM] | GI50 (HCC-2998 colon) [µM] | TGI (HCC-2998 colon) [µM] | GI50 (SF-268 CNS) [nM] | TGI (SF-268 CNS) [µM] | GI50 (UACC-62 melanoma) [µM] | TGI (UACC-62 melanoma) [µM] | GI50 (NCI-H23 lung) [µM] | TGI (NCI-H23 lung) [µM] | GI50 (EKVX NSCLC) [µM] | TGI (EKVX NSCLC) [µM] | GI50 (MDA-MB-435) [µM] | TGI (MDA-MB-435) [µM] | GI50 (NCI-H522 lung) [µM] | TGI (NCI-H522 lung) [µM] | GI50 (NCI-H226 lung) [nM] | TGI (NCI-H226 lung) [µM] | GI50 (MDA-MB-231 breast) [µM] | TGI (MDA-MB-231 breast) [µM]
1 | CS(=O)(=O)CCNCc1ccc(-c2ccc3ncnc(Nc4ccc(OCc5ccccc5)c(Br)c4)c3c2)o1 | 0.115 | > 25 | 4.56 | 9.11 | 10700 | > 25 | 5.03 | 9.75 | 10.5 | > 25 | 0.526 | > 25 | 6.09 | 15.8 | 3.86 | 10.6 | 10100 | > 25 | 4.85 | 9.87
2 | COc1ccc(-c2cc(-c3ccc(Cl)cc3)nc(SCCCC(=O)NO)n2)cc1 | 1.67 | 5.68 | 1.68 | 3.45 | 1150 | 4.27 | 0.853 | 2.22 | 1.43 | 7.06 | 1.21 | 8.76 | 1.21 | 3.19 | 0.704 | 3.26 | 1490 | 6.89 | 1.22 | 5.3
3 | C=C(C)[C@@H]1CC[C@]2(C(=O)O)CC[C@]3(C)[C@H](CC[C@@H]4[C@@]5(C)CCC(NC(=O)c6cccc(OC(C)=O)c6OC(C)=O)C(C)(C)[C@@H]5CC[C@]43C)[C@@H]12 (stereo partly drawn) | 1.89 | > 20.4 | 1.57 | 4.51 | 780 | 11.9 | 0.209 | 0.618 | 0.615 | 4.62 | 0.918 | > 100 | 0.382 | 1.61 | 0.371 | 1.62 | 1690 | 4.59 | 1.09 | 3.88
4 | COC(=O)c1cc2c3ccccc3n3c(=O)c4cc5ccccc5nc4c(n1)c23 | > 100 | > 100 | > 100 | > 100 | > 100000 | > 100 | > 100 | > 100 | > 100 | > 100 | > 100 | > 100 | > 100 | > 100 | > 100 | > 100 | > 100000 | > 100 | > 100 | > 100
5 | CCCN(CCC)c1ccc(/C=C/c2ccc3cc(OCC)ccc3n2)cc1 | > 100 | > 100 | > 100 | > 100 | > 100000 | > 100 | 72.8 | > 100 | 36.7 | > 100 | 91.4 | > 100 | > 100 | > 100 | 35.1 | > 100 | 58600 | > 100 | > 100 | > 100
6 | N#Cc1ccc2c(c1)C(=O)c1c-2n(CCCCl)c(=O)c2cc([N+](=O)[O-])ccc12 | 5.29 | 24.7 | 12 | > 100 | 1490 | > 100 | 1.13 | 9.96 | 4.81 | 17.6 | 50.4 | > 100 | > 100 | > 100 | 3.07 | 24.3 | 9100 | 89.9 | 77.5 | > 100
7 | COc1cc(N2CCC(N3CCN(C)CC3)CC2)ccc1Nc1ncnc(Nc2ccccc2S(=O)(=O)C(C)C)n1 | 5.18 | 30.5 | 13.2 | 36.9 | 4390 | 28.7 | 8.35 | 27.1 | 8.1 | 36.6 |  |  | 2.6 | 10.2 | 4.65 | 14 | 2190 | 17.5 | 3.31 | 18.5
8 | O=C(O)c1ccc(Oc2nccc(-c3c(-c4ccc(F)cc4)ncn3C3CCNCC3)n2)cc1 | > 25 | > 25 | > 25 | > 25 | > 25000 | > 25 | > 25 | > 25 |  |  | > 25 | > 25 | > 25 | > 25 | > 25 | > 25 |  |  | > 25 | > 25
9 | Cc1cc(=O)oc2c(C)c(O)ccc12 |  |  |  | > 100 |  | > 100 |  | > 100 |  | > 100 |  | > 100 |  | > 100 |  | > 100 |  | > 100 |  | > 100
10 | CC(=O)N1C/C(=C/c2ccc(Cl)cc2)C(=O)/C(=C/c2ccc(Cl)cc2)C1 | 1.61 | 3.39 | 0.632 | 1.45 | 1370 | 4.02 | 0.664 | 1.84 | 1.5 | 3.67 |  |  | 0.43 | 1.82 | 1.35 | 2.83 | 1170 | 3.49 | 1.15 | 3.23
11 | CCOC(=O)NC1C2CC(=O)OC(O2)C1OC(C)=O (stereo not drawn) |  | > 100 |  | > 100 |  | > 100 |  | > 100 |  | > 100 |  | > 100 | > 100 | > 100 |  | > 100 |  |  | > 100 | > 100
12 | COC(=O)CC[C@]1(C)O[C@H]2[C@H]([C@@H](C)CCCC(C)=O)OC(=O)[C@@H]2C[C@H]1O | > 100 | > 100 | 29.1 | > 100 | > 100000 | > 100 | > 100 | > 100 | 67.8 | > 100 | > 100 | > 100 | 98.3 | > 100 | > 100 | > 100 |  |  | > 100 | > 100
13 | NC[C@H]1Nc2ccccc2[C@@H](O)C1O (stereo partly drawn) |  | > 100 |  | > 100 |  | > 100 |  | > 100 |  | > 100 |  | > 100 |  | > 100 |  |  |  | > 100 |  | > 100
14 | C=C1C(C2(C)C(OC(C)=O)CC(=O)OC(C)(COC(C)=O)C2CC(=O)OC)C(OC=O)C(OC(=O)C(O)C(C)CC)C2(C)C(c3ccoc3)CC(=O)C12O (stereo not drawn) |  | > 100 |  |  |  | > 100 |  | > 100 |  | > 100 |  | > 100 |  | > 100 |  | > 100 |  | > 100 |  | > 100
